Laboratory results taken from patent US20040220164A1, “Triaza compound immunoregulatory agents” (priority 2001, published 2004).
Converted amounts (≈) assume the structure as drawn. Where two headings read alike, the source gives them in different places.

Columns and labels:
CD4 [1] = target: T1, CD4 (Homo sapiens, UniProt P01730); test: CD4 down-modulation, flow cytometry with FITC-conjugated anti-CD4 (SK3) mAb, MT-4 cells; assay type: cell-based; parameters: To study the effect of the CADA derivatives on surface CD4 antigen expression, MT-4 and SupT1 cells were incubated; endogenous in cells; host or cells: MT-4, SupT1, PBMC; settings: for IC50: MT-4 cells, day 3, read-out: IC50 CD4 (50% inhibition of extracellular CD4 expression) (converted); for CD4 down-modulating activity compared with CADA or parent analog (in words): structure-activity discussion of Table 5 (MT-4 and SupT1 cells); for CD4 down-modulating activity, fold less active than CADA: compared to CADA, MT-4 cells (stated for some compounds)
Protocol: Flow Cytometric Analyses. To study the effect of the CADA derivatives on surface CD4 antigen expression, MT-4 and SupT1 cells were incubated with a serial 5-fold dilution of the compounds (50, 10, 2, 0.4 and 0.08 μg/ml) or medium at 37° C. […] Briefly, after washing with phosphate-buffered saline (PBS) containing 2% fetal calf serum (FCS), cells were incubated with FITC-conjugated anti-CD4 (SK3) mAb for 30 min at 4° C. As a negative control for a specific background staining, cells were stained in parallel with Simultest Control γ1/γ^2a (Becton Dickinson). Then the cells were washed, fixed with 1% formaldehyde and analyzed by flow cytometry in a FACScalibur (Becton Dickinson, San Jose, Calif., USA). Data were acquired and analyzed with CellQuest software (Becton Dickinson). For the calculation of the CD4 receptor expression, the mean fluorescence intensity (MFI) of each sample was expressed as percentage of the MFI of control cells (after subtracting the MFI of the isotype control). Finally, the IC50 value of the compounds (i.e., the concentration of the compound required for 50% inhibition of extracellular CD4 expression) was calculated.

CD4 [2] = target: T1, CD4; test: CD4 down-modulation, flow cytometry with FITC-conjugated anti-CD4 (SK3) mAb, SupT1 cells; assay type: cell-based; parameters: To study the effect of the CADA derivatives on surface CD4 antigen expression, MT-4 and SupT1 cells were incubated; endogenous in cells; host or cells: MT-4, SupT1, PBMC; settings: day 4, read-out: IC50 CD4 (50% inhibition of extracellular CD4 expression) (converted)
Protocol: Flow Cytometric Analyses. To study the effect of the CADA derivatives on surface CD4 antigen expression, MT-4 and SupT1 cells were incubated with a serial 5-fold dilution of the compounds (50, 10, 2, 0.4 and 0.08 μg/ml) or medium at 37° C. Cell surface CD4 antigen expression was analyzed at day 3 (MT-4) or day 4 (SupT1). Briefly, after washing with phosphate-buffered saline (PBS) containing 2% fetal calf serum (FCS), cells were incubated with FITC-conjugated anti-CD4 (SK3) mAb for 30 min at 4° C. As a negative control for a specific background staining, cells were stained in parallel with Simultest Control γ1/γ^2a (Becton Dickinson). Then the cells were washed, fixed with 1% formaldehyde and analyzed by flow cytometry in a FACScalibur (Becton Dickinson, San Jose, Calif., USA). Data were acquired and analyzed with CellQuest software (Becton Dickinson). For the calculation of the CD4 receptor expression, the mean fluorescence intensity (MFI) of each sample was expressed as percentage of the MFI of control cells (after subtracting the MFI of the isotype control). Finally, the IC50 value of the compounds (i.e., the concentration of the compound required for 50% inhibition of extracellular CD4 expression) was calculated.

HHV-7 (KHR strain) = test: Anti-HHV-7 assay in SupT1 cells (antigen expression, flow cytometry, Example 3); assay type: cell-based; settings: SUP-T1; SupT1 cells; read-out: IC50 HHV-7 (50% reduction of HHV-7 antigen expression)
Protocol: For HHV-7, five-fold dilutions of the compounds were added in 500 μl culture medium in 24-well flat bottom plates (Iwaki, Japan), whereupon 2×10^5 SupT1 cells were added in 400 μl culture medium. After 30 min incubation at room temperature, 100 μl of HHV-7 stock was added to each well. HHV-7-infected and mock-infected SupT1 cells were cultured in a final volume of 1 ml medium in the absence of the compounds. On day 4, half of the medium and the cells were replaced and fresh medium without new compound was added. This procedure was repeated every 2 or 3 days. The CPE was checked regularly microscopically. When CPE was observed, the HHV-7 antigen expression was monitored by flow cytometry, as described previously (Zhang, Y. et al. (1999) “Selective activity of various antiviral compounds against HHV-7 infection Antiviral Res. 43, 23-35.)

[3] = Cytotoxicity assay (trypan blue exclusion, propidium iodide); assay type: cell-based, human; settings: human
Protocol: Cytotoxicity Assay. Cellular toxicity of the compounds was measured by trypan blue exclusion and also by Propidium Iodide by flow cytometry after 3 or 4 days of incubation, in parallel with the CD4 antigen expression. The CC50 value of each CADA analog is the concentration (in μg/ml) required to reduce the viability of the cells by 50%.

HIV-1 strain NL4.3 = test: Anti-HIV-1 assay in MT-4 cells (p24 Ag ELISA, Example 3); assay type: cell-based
Protocol: Antiviral Assays. For HIV-1, MT-4 cells were infected with the HIV-1 strain NL4.3. Briefly, five-fold dilutions of the compounds (in 100 μl) were added to 96-well flat bottom plates (Iwaki, Japan). Then, to each well, 7.5×10^4 MT-4 cells were added in 50 μl medium, followed by 50 μl of diluted HIV-1 stock (strain NL4.3). Cytopathic effect (CPE) induced by the virus was checked regularly microscopically. When strong CPE was observed (after 3 to 5 days of incubation) in untreated HIV-1 infected cells, the supernatant was collected, stored at −20° C. and analyzed for HIV-1 core antigen by p24 Ag ELISA (NEN™, PerkinElmer Life Sciences, Boston, Mass.). Finally, the IC50 value of the compounds (i.e., the concentration of the compound required for 50% reduction of HIV infection as measured by viral p24 antigen level in the supernatant of infected MT-4 cells) was calculated.

CD4 [4] = target: T1, CD4; test: Cell surface CD4 expression by flow cytometry (anti-CD4 mAb Leu3a-PE); assay type: cell-based; parameters: To study the effect of the CADA derivatives on surface CD4 antigen expression, MT-4 and SupT1 cells were incubated; endogenous in cells; host or cells: MT-4, SupT1, PBMC; settings: staurosporine together with CADA
Protocol: FIGS. 2A-2C. Surface CD4 expression in MT-4 cell line, SupT1 cell line and PBMCs after incubation with CADA hydrochloride (3.2 or 16 μM) for 1 and 4 days. (A) Cell surface CD4 expression of control MT-4 cells and MT-4 cells treated with CADA (3.2 μM) for 1 day or 4 days. (B) Cell surface CD4 expression of control SupT1 cells and SupT1 cells treated with CADA (3.2 μM) for 1 day or 4 days. (C) Cell surface CD4 expression of control PBMCs and PBMCs treated with CADA (16 μM) for 1 day or 4 days. The cells were stained with anti-CD4 mAb (Leu3a-PE). Percentages of fluorescent cells and MFI (mean fluorescence intensity) are indicated in each histogram.
FIG. 4. Comparison of the effects on CD4 modulation by ATA (24 μM), CADA hydrochloride (16 μM) and PMA (8 nM) in SupT1 cells after incubation with the compounds analyzed after 20 minutes, 4 hours, 1 day and 4 days.
Cells were incubated with CADA hydrochloride and the CD4 expression on the cell surface was analyzed. […] In peripheral blood mononuclear cells (PBMCs), the percentage of CD4 expression decreased to 0.2% after incubation with CADA (16 μM) for 4 days (FIG. 2).
Expression of various other surface antigens was also examined in MT-4 cells, SupT1 cells and PBMCs after incubation with CADA (16 μM) or CADA-free medium at 37° C. for 4 days. After washing with phosphate-buffered saline (PBS) containing 2% FCS(fetal calf serum), the cells were incubated with mAb (as indicated in Table 1) for 20 min at 4° C. Then the cells were washed, fixed with 1% formaldehyde and analyzed by flow cytometry. All mAbs were purchased from Becton-Dickinson (Erembodegem, Belgium).
CADA was compared with ATA and PMA with regard to their down-modulating effects. […] At day 4, the CD4 expression in SupT1 cells treated with CADA reduced to 1.2%.

[5] = MT-4 cells, read-out: CC50 (50% cytotoxic concentration)
[6] = SupT1 cells, read-out: CC50 (50% cytotoxic concentration)
[7] = Human immunodeficiency virus 1, MT4, MT-4 cells, read-out: IC50 HIV-1 (NL4.3), p24 Ag ELISA
[8] = MT-4 cells, MT4 cells, Table 6, unit inferred, read-out: CC50
[9] = SupT1 cells, Table 6, unit inferred, read-out: CC50
[10] = Human immunodeficiency virus 1, MT4 cells, Table 6, unit inferred, read-out: IC50(HIV-1)

Row | Compound | IC50 (CD4 [1]) [µM] | CD4 down-modulating activity compared with CADA or parent analog (in words) (CD4 [1]) | IC50 (CD4 [2]) [µM] | IC50 (HHV-7 (KHR strain)) [mg/L] | CC50 [3, 5] [mg/L] | CC50 [3, 6] [mg/L] | IC50 (HIV-1 strain NL4.3; [7]) [mg/L] | CD4 down-modulating activity, fold less active than CADA (CD4 [1]) [fold] | CD4 down-regulating activity, fold less active than QJ036 (CD4 [1]; compared to QJ036) [fold] | CC50 [3, 8] [mg/L] | CC50 [3, 9] [mg/L] | IC50 (HIV-1 strain NL4.3; [10]) [mg/L] | effect of PKC blocker on the down-modulation of CD4 with CADA (CD4 [4])
1 | C=C1CN(S(=O)(=O)c2ccc(C)cc2)CCCN(S(=O)(=O)c2ccc(C)cc2)CCCN(S(=O)(=O)c2ccc(C)cc2)C1 [AS112] | > 15.5 | negative effect | > 77.4 | > 50 | 27.8 (≈ 43 µM) | > 50 | > 10 |  |  |  |  |  | 
2 | Cc1ccc(S(=O)(=O)N2CCCN(Cc3ccccc3)CCCN(S(=O)(=O)c3ccc(C)cc3)CC(CCl)C2)cc1 [AS117] | 1.81 |  | 2.41 | 0.78 (≈ 1.26 µM) | 30.7 (≈ 49.7 µM) | > 50 | 1.15 (≈ 1.86 µM) | 3 |  |  |  |  | 
3 | C=C1CN(S(=O)(=O)c2ccc(Br)cc2)CCCN(Cc2ccccc2)CCCN(S(=O)(=O)c2ccc(Br)cc2)C1 [AS-PB127] | 1.98 |  | 2.49 | 0.88 (≈ 1.24 µM) | 35.7 (≈ 50.2 µM) | > 50 | 1.4 (≈ 1.97 µM) | 4 |  |  |  |  | 
4 | C=C1CN(S(=O)(=O)c2ccc(C)cc2)CCCN(C(=O)OCC)CCCN(S(=O)(=O)c2ccc(C)cc2)C1 [Compound 95-213] | 11.5 |  | 17.1 | 0.68 (≈ 1.21 µM) | > 50 | > 50 | 8.05 (≈ 14.3 µM) |  |  |  |  |  | 
5 | C=C1CN(S(=O)(=O)c2ccc(C)cc2)CCCN(CC(C)C)CCCN(S(=O)(=O)c2ccc(C)cc2)C1 [Compound 98-035] | 8.78 |  | 9.73 | 0.7 (≈ 1.28 µM) | > 50 | > 50 | 4.82 (≈ 8.8 µM) |  | 4 |  |  |  | 
6 | C=C1CN(S(=O)(=O)c2ccc(C)cc2)CCCN(Cc2ccccn2)CCCN(S(=O)(=O)c2ccc(C)cc2)C1 [Compound 98-037] | > 85.8 | complete loss of activity | > 85.8 | > 50 | > 50 | > 50 | > 50 |  |  |  |  |  | 
7 | Cc1ccc(S(=O)(=O)N2CCCN(S(=O)(=O)c3ccc(C)cc3)CC(C)(O)CN(S(=O)(=O)c3ccc(C)cc3)CCC2)cc1 [HJC241] | 2.86 |  | > 75.3 | 1.09 (≈ 1.64 µM) | 32 (≈ 48.2 µM) | > 50 | > 10 |  |  |  |  |  | 
8 | Cc1ccc(S(=O)(=O)N2CCCN(Cc3ccccc3)CCCN(S(=O)(=O)c3ccc(C)cc3)CC(CO)C2)cc1 [HJC321] | 3.32 |  | 5.28 | 1.94 (≈ 3.23 µM) | 26.1 (≈ 43.5 µM) | > 50 | 3.88 (≈ 6.47 µM) | 6 |  |  |  |  | 
9 | C=C1CN(S(=O)(=O)c2ccc(C)cc2)CCCN(Cc2ccccc2)CCCN(S(=O)(=O)c2cccc3c(N(C)C)cccc23)C1 [KKD015, 9-Benzyl-3-methylene-1-(5-dimethylamino-1-naphthalenesulfonyl)-5-p-toluenesulfonyl-1,5,9-triazacyclododecane] |  |  |  |  |  |  |  |  |  | > 100 | > 100 | 6.7 (≈ 10.1 µM) | 
10 | C=C1CN(S(=O)(=O)c2ccc(C)cc2)CCCN(CC2CCCCC2)CCCN(S(=O)(=O)c2cccc3c(N(C)C)cccc23)C1 [KKD016, 9-methylcyclohexane-3-methylene-1-(5-dimethylamino-1-naphthalenesulfonyl)-5-p-toluenesulfonyl-1,5,9-triazacyclododecane] |  |  |  |  |  |  |  |  |  | 61.2 (≈ 91.8 µM) | 27.4 (≈ 41.1 µM) | 1.15 (≈ 1.72 µM) | 
11 | Cc1ccc(S(=O)(=O)N2CCCN(Cc3ccccc3)CCCN(S(=O)(=O)c3ccc(C)cc3)CC(=O)C2)cc1 [MFS010] | > 17.1 | significantly decreased | > 85.6 | 4.43 (≈ 7.59 µM) | 29.3 (≈ 50.2 µM) | > 50 | > 10 |  |  |  |  |  | 
12 | CN[C@@H]1C[C@H]2O[C@@](C)([C@@H]1OC)n1c3ccccc3c3c4c(c5c6ccccc6n2c5c31)C(=O)NC4 [staurosporine, reference compound] |  |  |  |  |  |  |  |  |  |  |  |  | did not show any effect
